{
  "source": "patent US20260284186A1",
  "about": "“[…] MODIFIERS FOR THE TREATMENT OF SUBJECTS WITH UNDER[…] SYSTEMS AND COMPOSITIONS THEREOF” (priority 2023, published 2026)",
  "key": {"RBD-ACE2 interaction": {"test_system": "RBD-ACE2 interaction", "experiment": "ACE2-binding inhibitory activity of the induced antibodies", "type": "in vivo, Balb/c mice", "conditions": "sera after three administrations; FIG. 3", "text": "FIG. 3. Inhibitory activity of the antibody response induced by the groups with the strongest anti-RBD response after three administrations, following the immunization schedule described in example 1. A) G2; B) G4; C) G6; D) G11; E) G12 and F) Monoclonal antibody (McAb) CBSSRBD-S.8 used as standard curve to plot the results in the five ELISA plates.\nThus, we studied the antibody response effect on the ACE2-binding inhibitory activity.\nThe resulting antibody response is capable of inhibiting the binding of the antigen to their cellular receptor ACE2, a process that resembles the interaction of the virus to their cellular receptor. This inhibitory effect is essential to ensure the strong antiviral effect of the immune response against an infectious agent/virus through the specific neutralizing activity. […] This functional aspect of the antibody response is linked to the increased quality of the same response in terms of avidity. […] The quality of the experiment was ensured with the use of a McAb in the standard curve of the five plates used in the study and the reproducibility of the inhibitory effect (FIG. 3F) as well as with the assessment of the ACE2 inhibitory binding in a group that received the placebo of CDA but no antigen ([…])."}, "SARS and IAV": {"test_system": "SARS and IAV", "type": "in vivo", "conditions": "BRM without antigen"}, "SARS-COV-2 RBD": {"test_system": "SARS-COV-2 RBD", "experiment": "Anti-RBD IgG response, CDA dose escalation, Example 13", "type": "in vivo, Balb/c mice"}, "multiple viruses": {"test_system": "multiple viruses", "experiment": "In vitro stimulation of cells with CDA or CDA/HBcAg, IFN induction and virus elimination, Example 14", "type": "cell-based"}},
  "data": [
    {"molecule": "Nc1ncnc2c1ncn2[C@@H]1O[C@@H]2COP(=O)(O)O[C@H]3[C@@H](O)[C@H](n4cnc5c(N)ncnc54)O[C@@H]3COP(=O)(O)O[C@H]2[C@H]1O", "note": "[CDA, cyclic bis(3′-5′) diadenylic acid]", "values": [
      {"measurement": "Inhibitory effect on RBD-ACE2 binding", "setting": "RBD-ACE2 interaction", "value": "strong inhibitory effect"},
      {"measurement": "Antibody response against the viral antigens after in vivo treatment", "setting": "SARS and IAV", "value": "high avidity antibody response"},
      {"measurement": "Viral titers of SARS and IAV", "setting": "SARS and IAV; acutely infected subjects and in vitro infected & treated cells, before or after infection", "value": "quantitative reduction of the viral titers"},
      {"measurement": "Dose of CDA inducing the strongest immune response", "setting": "SARS-COV-2 RBD; RBD at 50 μg dose (1 mg/mL)", "value": 5, "unit": "µg"},
      {"measurement": "Optimal dose of CDA per mice", "setting": "SARS-COV-2 RBD; with 12.5 μg of RBD", "value": 10, "unit": "µg"},
      {"measurement": "Stimulatory effects and type I / type 2 IFN induction", "setting": "multiple viruses; in vitro stimulation of cells, synergy in vivo", "value": "enhancement of different channels of stimulatory effects"},
      {"measurement": "Elimination of viruses in vitro", "setting": "multiple viruses; multiple viruses", "value": "in vitro elimination of multiple viruses"}
    ]}
  ]
}
